According to the supplement of paper PMC8671470:

Legend:
Details in all cases: 72 h
BV-173 = system: BV-173
Outline: (§1)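 Fifteen myeloid leukaemia cell lines were seeded in RPMI 1640 at a density titrated to the linear growth range. Each line went into 384-well plates with compounds acoustically pre-printed at five tenfold doses from 1 to 10,000 nM, in duplicate, and was incubated for 72 h at 37 °C with 5% CO2. Luminescent ATP viability was normalised to vehicle and to a positive control at 10 µM. The IC50 came from four-parameter log-logistic dose–response fits.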

HEL = system: HEL
Outline: as §1

HL-60 = system: HL-60
Outline: as §1

K-562 = system: K-562
Outline: as §1

KCL-22 = system: KCL-22
Outline: as §1

KG-1 = system: KG-1
Outline: as §1

KU-812 = system: KU-812
Outline: as §1

LAMA-84 = system: LAMA-84
Outline: as §1

ML-2 = system: ML-2
Outline: as §1

MOLM-13 = system: MOLM-13
Outline: as §1

MV4-11 = system: MV4-11
Outline: as §1

Mono-Mac-6 = system: Mono-Mac-6
Outline: as §1

NOMO-1 = system: NOMO-1
Outline: as §1

SHI-1 = system: SHI-1
Outline: as §1

THP-1 = system: THP-1
Outline: as §1

Row | Structure (SMILES) | IC50 (cell viability) (BV-173) | IC50 (cell viability) (HEL) | IC50 (cell viability) (HL-60) | IC50 (cell viability) (K-562) | IC50 (cell viability) (KCL-22) | IC50 (cell viability) (KG-1) | IC50 (cell viability) (KU-812) | IC50 (cell viability) (LAMA-84) | IC50 (cell viability) (ML-2) | IC50 (cell viability) (MOLM-13) | IC50 (cell viability) (MV4-11) | IC50 (cell viability) (Mono-Mac-6) | IC50 (cell viability) (NOMO-1) | IC50 (cell viability) (SHI-1) | IC50 (cell viability) (THP-1)
1 | Clc1ccc(COC(Cn2ccnc2)c2ccc(Cl)cc2Cl)cc1 (stereo not given) [Econazole] | 2.28 µM | > 10 µM | 3.64 µM | 2.39 µM | 6.71 µM | 6.84 µM | 7.24 µM | > 10 µM | 8.94 µM | 0.925 µM | 1.08 µM | > 10 µM | > 10 µM | > 10 µM | > 10 µM
2 | C#Cc1cnc(O)nc1O [Eniluracil] | > 10 µM | > 10 µM | > 10 µM | > 10 µM | > 10 µM | > 10 µM | > 10 µM | > 10 µM | > 10 µM | > 10 µM | > 10 µM | > 10 µM | > 10 µM | > 10 µM | > 10 µM
3 | CC(/C=C1\SC(=S)N(CC(=O)O)C1=O)=C\c1ccccc1 [Epalrestat] | > 10 µM | > 10 µM | > 10 µM | > 10 µM | > 10 µM | > 10 µM | > 10 µM | > 10 µM | > 10 µM | > 10 µM | > 10 µM | > 10 µM | > 10 µM | > 10 µM | > 10 µM
4 | CCOC(=O)[C@@]1(CCCCCCOc2ccc(Cl)cc2)CO1 [Etomoxir] | 6.76 µM | > 10 µM | > 10 µM | > 10 µM | > 10 µM | > 10 µM | > 10 µM | 5.83 µM | > 10 µM | > 10 µM | > 10 µM | > 10 µM | > 10 µM | > 10 µM | > 10 µM
5 | Cc1c(-c2ccccc2)oc2c(C(=O)OCCN3CCCCC3)cccc2c1=O.Cl [Flavoxate] | > 10 µM | > 10 µM | > 10 µM | > 10 µM | > 10 µM | > 10 µM | > 10 µM | > 10 µM | > 10 µM | > 10 µM | > 10 µM | > 10 µM | > 10 µM | > 10 µM | > 10 µM
6 | O=C(O)CCc1ccc(NCc2cccc(Oc3ccccc3)c2)cc1 [GW9508] | > 10 µM | > 10 µM | > 10 µM | > 10 µM | > 10 µM | > 10 µM | > 10 µM | > 10 µM | > 10 µM | > 10 µM | > 10 µM | > 10 µM | > 10 µM | > 10 µM | > 10 µM
7 | c1ccc2c(c1)OCC(=C1NCCN1)O2 [Idazoxan] | > 10 µM | > 10 µM | > 10 µM | > 10 µM | > 10 µM | > 10 µM | > 10 µM | > 10 µM | > 10 µM | > 10 µM | > 10 µM | > 10 µM | > 10 µM | > 10 µM | > 10 µM
8 | C[C@]12O[C@H](C[C@]1(O)CO)n1c3ccccc3c3c4c(c5c6ccccc6n2c5c31)CNC4=O [Lestaurtinib] | 0.0201 µM | 0.0504 µM | 0.0912 µM | 0.182 µM | 0.149 µM | 0.0227 µM | 0.0467 µM | 0.0512 µM | 0.139 µM | 0.00461 µM | 0.00331 µM | 0.0143 µM | 0.188 µM | 0.0633 µM | 0.848 µM
9 | O=C(O)c1nn(Cc2ccc(Cl)cc2Cl)c2ccccc12 [Lonidamine] | > 10 µM | > 10 µM | > 10 µM | > 10 µM | > 10 µM | > 10 µM | > 10 µM | > 10 µM | > 10 µM | > 10 µM | > 10 µM | > 10 µM | > 10 µM | > 10 µM | > 10 µM
